Source: patent US8168651B2, “Protein kinase modulators” (Cylene Pharmaceuticals, Inc., priority 2008, dated 2012)
Where two headings read alike, the source gives them in different places.

Tests used:
recombinant human CK2 = recombinant human CK2 (Homo sapiens (Human), UniProt P68400); assay: CK2 assay (cell-free, 33P-ATP filter plate); assay type: biochemical; conditions: 15 um ATP, cell-free assay; read-out: CK2 (15 um ATP) IC50
[1] = system: HCT-116 human colorectal carcinoma cells; assay: Cell-proliferation assay using Alamar Blue dye; assay type: cell-based; conditions: Homo sapiens;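 note: cells exposed to compound for about 4 days, then Alamar Blue added and dye fluorescence read after about 4 h, compared with medium-only control wells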
Jurkat = assay: Cell proliferation modulatory activity, Jurkat; assay type: cell-based; conditions: Homo sapiens
recombinant human PIM1 = recombinant human PIM1 (Homo sapiens (Human), UniProt P11309); assay: PIM-1 kinase activity in cell-free in vitro assay; assay type: biochemical; conditions: cell-free assay; for inhibition at 0.5 µM: 500 nM compound, read-out: PIM-1: % inh 500 nM
Sequence of recombinant human PIM1 (P11309 whole entry): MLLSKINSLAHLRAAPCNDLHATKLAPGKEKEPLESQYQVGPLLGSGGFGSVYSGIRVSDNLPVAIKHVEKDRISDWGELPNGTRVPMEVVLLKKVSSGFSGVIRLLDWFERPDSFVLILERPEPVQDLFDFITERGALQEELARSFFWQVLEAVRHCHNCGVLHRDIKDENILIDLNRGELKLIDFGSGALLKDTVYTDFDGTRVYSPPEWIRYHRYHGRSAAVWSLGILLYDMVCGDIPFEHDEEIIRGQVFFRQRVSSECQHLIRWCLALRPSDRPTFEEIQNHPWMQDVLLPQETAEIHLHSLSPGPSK

[2] = HCT-116, HCT-116, second HCT-116 column (c8), read-out: HCT-116 (uM), cell proliferation modulatory activity
[3] = HCT-116, read-out: HCT-116 (uM), cell proliferation modulatory activity, HCT-116, second HCT-116 column (c8)

Sequence of recombinant human CK2 (P68400 whole entry): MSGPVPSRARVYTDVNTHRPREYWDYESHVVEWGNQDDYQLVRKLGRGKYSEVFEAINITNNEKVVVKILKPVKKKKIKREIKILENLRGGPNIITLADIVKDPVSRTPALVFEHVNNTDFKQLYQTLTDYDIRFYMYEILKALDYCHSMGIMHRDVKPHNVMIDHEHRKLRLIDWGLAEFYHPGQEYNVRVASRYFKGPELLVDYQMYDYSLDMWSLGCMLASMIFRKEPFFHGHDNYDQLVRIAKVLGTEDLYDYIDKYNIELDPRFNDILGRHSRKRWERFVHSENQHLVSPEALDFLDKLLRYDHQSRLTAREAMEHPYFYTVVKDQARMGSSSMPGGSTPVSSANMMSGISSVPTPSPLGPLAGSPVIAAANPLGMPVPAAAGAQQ
Sequence of recombinant human CK2 (P67870 whole entry partner): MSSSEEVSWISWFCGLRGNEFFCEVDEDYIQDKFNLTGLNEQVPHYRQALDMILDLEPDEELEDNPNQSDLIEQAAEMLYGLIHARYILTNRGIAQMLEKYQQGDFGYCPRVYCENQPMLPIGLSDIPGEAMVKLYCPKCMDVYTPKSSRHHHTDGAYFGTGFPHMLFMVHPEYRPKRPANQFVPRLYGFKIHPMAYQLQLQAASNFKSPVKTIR

IC50 (recombinant human CK2) [µM] | IC50 [1, 2] [µM] | IC50 (Jurkat) [µM] | inhibition at 0.5 µM (recombinant human PIM1) [%] | IC50 [1, 3] [µM] | IC50 (recombinant human PIM1) [µM] | SMILES
0.045 | 3.64 | 2.02 | 9.55 | – | – | CCOCCCNc1ncc2c(n1)c(NC1CC1)nc1cc(C(=O)O)ccc12
> 0.75 | 1.08 | 0.618 | -16.2 | – | – | CNC(=O)c1ccc2c(c1)nc(NC1CC1)c1nc(NC3CC3)ncc12
0.023 | > 10 | > 50 | – | – | – | O=C(O)c1ccc2c(c1)nc(NC1CC1)c1nc(NCc3cccnc3)ncc12
0.013 | > 10 | 13.7 | 17.2 | – | – | COCCNc1ncc2c(n1)c(NC1CC1)nc1cc(C(=O)O)ccc12
– | > 10 | 27.5 | -22.8 | – | – | O=C(O)c1ccc2c(c1)nc(NC1CC1)c1nc(NC(CO)c3ccccc3)ncc12 (stereo not shown)
– | 3.77 | 5.17 | 32.8 | – | – | CCOc1cccc(Nc2ncc3c(n2)c(NC2CC2)nc2cc(C(=O)O)ccc23)c1
> 0.75 | > 10 | 1.43 | 2.65 | – | – | O=C(NCCN1CCOCC1)c1ccc2c(c1)nc(NC1CC1)c1nc(NC3CC3)ncc12
– | > 10 | 9.26 | 45.9 | – | – | CCOc1ccc(Nc2ncc3c(n2)c(NC2CC2)nc2cc(C(=O)O)ccc23)cc1
– | – | 8.82 | 34.5 | > 10 | – | O=C(O)c1ccc2c(c1)nc(NC1CC1)c1nc(NCc3ccccc3)ncc12 [drawing 1617]
– | – | 2.39 | 44.2 | > 10 | – | O=C(O)c1ccc2c(c1)nc(NC1CC1)c1nc(Nc3cccc(C(F)(F)F)c3)ncc12
> 0.75 | > 10 | 2.36 | 3.79 | – | – | NCCNC(=O)c1ccc2c(c1)nc(NC1CC1)c1nc(NC3CC3)ncc12
– | > 10 | 4.7 | 68.3 | – | 0.668 | O=C(O)c1ccc2c(c1)nc(Nc1ccc(OC(F)(F)F)cc1)c1ccncc12
– | > 10 | > 50 | 17.1 | – | – | COC(=O)c1ccc2c(c1)nc(NC1CC1)c1nc(SC)ncc12 [drawing 1641]
– | > 10 | 10.4 | 75.8 | – | 0.698 | COc1ccccc1Nc1nc2cc(C(=O)O)ccc2c2cnccc12
– | > 10 | > 30 | 1.04 | – | – | O=C(O)c1ccc2c(c1)nc(N1CCC(c3ccccc3)C1)c1ccncc12 (stereo not shown)
– | > 10 | > 30 | -17.6 | – | – | C#Cc1cccc(Nc2nc3cc(C(=O)N4CCOCC4)ccc3c3cncnc23)c1
– | > 10 | 23.3 | 22.9 | – | – | O=C(O)c1ccc2c(c1)nc(NC1CC1)c1nc(Nc3cccc4ccccc34)ncc12
– | > 10 | 7.44 | 87.3 | – | 0.711 | O=C(O)c1ccc2c(c1)nc(Nc1cccc(OC(F)(F)F)c1)c1ccncc12
– | > 10 | > 30 | 25.3 | – | – | COC(=O)c1ccc2c(c1)nc(Nc1ccccc1C)c1nc(S(C)(=O)=O)ncc12

IC50 (recombinant human CK2) [µM] | IC50 [1, 2] [µM] | IC50 (Jurkat) [µM] | inhibition at 0.5 µM (recombinant human PIM1) [%] | IC50 [1, 3] [µM] | IC50 (recombinant human PIM1) [µM] | SMILES
0.095 | > 10 | 2.17 | 23.2 | – | – | O=C(O)c1ccc2c(c1)nc(NC1CC1)c1nc(Nc3cccc(Cl)c3)ncc12
0.017 | > 10 | 2.38 | 71.7 | – | – | O=C(O)c1ccc2c(c1)nc(NC1CC1)c1nc(Nc3cccc(F)c3F)ncc12
> 0.75 | 3.87 | 1.64 | -16.1 | – | – | COCCNC(=O)c1ccc2c(c1)nc(NC1CC1)c1nc(NC3CC3)ncc12
– | – | 9.68 | 52.4 | > 10 | 0.535 | CNc1ncc2c(n1)c(NC1CC1)nc1cc(C(=O)O)ccc12
– | > 10 | > 62.5 | 32 | – | – | CC(=O)Nc1cccc(Nc2ncc3c(n2)c(NC2CC2)nc2cc(C(=O)O)ccc23)c1
0.135 | 1.33 | 0.504 | -10.8 | – | – | NC(=O)c1ccc2c(c1)nc(NC1CC1)c1nc(NC3CC3)ncc12
– | > 10 | 26.6 | 8.76 | – | – | O=C(O)c1ccc2c(c1)nc(NC1CC1)c1nc(Nc3ccc(F)c(Cl)c3)ncc12
– | > 10 | 3.22 | -11.2 | – | – | C#Cc1cccc(Nc2nc3cc(C(=O)N4CCCN(C)CC4)ccc3c3cncnc23)c1
> 0.75 | 1.12 | 0.583 | 1.62 | – | – | CN(C)C(=O)c1ccc2c(c1)nc(NC1CC1)c1nc(NC3CC3)ncc12
– | > 10 | 9.09 | -14.6 | – | – | C#Cc1cccc(Nc2nc3cc(C(=O)NCc4ccc(C#N)cc4)ccc3c3cncnc23)c1
– | > 10 | > 50 | 18.9 | – | – | O=C(O)c1ccc2c(c1)nc(NC1CC1)c1nc(NC3CCNCC3)ncc12
– | – | 23.3 | 11.2 | > 10 | – | O=C(O)c1ccc2c(c1)nc(NC1CC1)c1nc(NCc3ccccn3)ncc12
– | > 10 | 19.6 | 4.53 | – | – | Cc1c(-c2cc(Nc3nc4cc(C(=O)O)ccc4c4cnccc34)n(C)n2)sc2ccc(Cl)cc12
– | > 10 | 34 | -37.5 | – | – | CN(C)CCNc1nc2cc(C(=O)O)ccc2c2cnc(NC3CC3)nc12 [drawing 1642]
– | – | 1.29 | 68.2 | 4.69 | 0.661 | C#Cc1cccc(Nc2nc3cc(C(=O)O)ccc3c3cnc(NC)nc23)c1
– | – | 0.826 | -11.1 | > 10 | – | O=C(O)c1ccc2c(c1)nc(NC1CC1)c1nc(NCCc3ccccc3)ncc12
> 0.75 | 3.16 | 0.989 | -5.17 | – | – | O=C(Nc1ccccc1)c1ccc2c(c1)nc(NC1CC1)c1nc(NC3CC3)ncc12
– | 4.39 | 4.37 | -15.5 | – | – | C#Cc1cccc(Nc2nc3cc(C(=O)N(C)CCN(C)C)ccc3c3cncnc23)c1
0.042 | > 10 | 21.5 | 10.5 | – | – | O=C(O)c1ccc2c(c1)nc(NC1CC1)c1nc(NCC3CCCO3)ncc12 (stereo not shown)

IC50 (recombinant human CK2) [µM] | IC50 [1, 2] [µM] | IC50 (Jurkat) [µM] | inhibition at 0.5 µM (recombinant human PIM1) [%] | IC50 [1, 3] [µM] | IC50 (recombinant human PIM1) [µM] | SMILES
– | > 10 | 18.8 | -11.2 | – | – | C#Cc1cccc(Nc2nc3cc(C(=O)N(C)c4ccccc4)ccc3c3cncnc23)c1
0.164 | > 10 | > 50 | -15.9 | – | – | O=C(O)c1ccc2c(c1)nc(NC1CC1)c1nc(NCCCO)ncc12
> 0.75 | 3.07 | 1.95 | -17.1 | – | – | O=C(NCc1ccccn1)c1ccc2c(c1)nc(NC1CC1)c1nc(NC3CC3)ncc12
– | > 10 | 4.67 | -0.924 | – | – | COC(=O)c1ccc2c(c1)nc(NC1CC1)c1nc(SCc3ccccc3Cl)ncc12 [drawing 1611]
0.008 | > 10 | 4.41 | 15.7 | – | – | O=C(O)c1ccc2c(c1)nc(NC1CC1)c1nc(NCC3CC3)ncc12
– | 2.31 | 9.17 | 38.7 | – | – | COc1ccc(Nc2ncc3c(n2)c(NC2CC2)nc2cc(C(=O)O)ccc23)cc1Cl
0.058 | > 10 | 18.1 | -8.19 | – | – | CCOCCNc1ncc2c(n1)c(NC1CC1)nc1cc(C(=O)O)ccc12
0.228 | > 10 | 28.7 | -32.7 | – | – | CC(Nc1ncc2c(n1)c(NC1CC1)nc1cc(C(=O)O)ccc12)c1ccccc1 (stereo not shown)
– | > 10 | 15.7 | 50.4 | – | > 1.1 | O=C(O)c1ccc2c(c1)nc(NC1CC1)c1nc(Nc3cc(F)ccc3F)ncc12
0.167 | > 10 | 44.7 | -8.31 | – | – | CC(C)C(CO)Nc1ncc2c(n1)c(NC1CC1)nc1cc(C(=O)O)ccc12 (stereo not shown)
– | – | 1.09 | 51.5 | > 10 | – | CNc1ncc2c(n1)c(Nc1cccc(Cl)c1)nc1cc(C(=O)O)ccc12
0.064 | > 10 | 7.37 | -2.46 | – | > 1.1 | CC(C)OCCNc1ncc2c(n1)c(NC1CC1)nc1cc(C(=O)O)ccc12
– | > 10 | > 30 | 9.95 | – | – | Cc1ccc(C(N)=O)cc1Nc1nc2cc(C(=O)O)ccc2c2cnccc12
– | – | 2.18 | 33.7 | > 10 | – | O=C(O)c1ccc2c(c1)nc(Nc1ccccc1)c1nc(NCCCN3CCOCC3)ncc12
– | > 10 | 5.02 | 49.3 | – | 1.07 | O=C(O)c1ccc2c(c1)nc(NC1CC1)c1nc(Nc3ccc(F)cc3)ncc12
– | – | 35.6 | 8.18 | > 10 | – | O=C(O)c1ccc2c(c1)nc(NC1CC1)c1nc(NCc3ccncc3)ncc12
– | 3.49 | 1.54 | -13.1 | – | – | C#Cc1cccc(Nc2nc3cc(C(=O)NC4CC4)ccc3c3cncnc23)c1
– | > 10 | 18.9 | 26.3 | – | – | CC(C)Oc1ccc(Nc2ncc3c(n2)c(NC2CC2)nc2cc(C(=O)O)ccc23)cc1
– | > 10 | 10.7 | 75.8 | – | 0.744 | COc1cc(Nc2nc3cc(C(=O)O)ccc3c3cnccc23)ccc1C
